In patent US4177287A, “Pharmaceutical compositions of N1 -acyl-N2 -phenyldiaminopropanols and process for their preparation” (Kali-Chemie Pharma GmbH, priority 1977, dated 1979):
Where a name gives a salt, the structure may show the parent alone.

Columns and labels:
in vivo = settings: mouse, po, single application, 7-day, unfed white NMRI-mice, read-out: Toxicity LD50 p.o.
Protocol: The acute 7-day-toxicity is determined after a single application per os in white NMRI-mice which had not been fed. The calculation of the LD50 is carried out by probitanalysis by means of electronic data processing (see L. Cavalli-Sforza, Gustav Fischer-Verlag, Stuttgart (1964), Grundbegriffe der Biometrie, pp. 153).

[1] = tested on: indomethacine-induced ulcers; assay: Effectiveness against indomethacine-induced ulcers in the rat; assay type: in vivo; settings: for inhibition at 68 mg/kg: dosage 68 mg/kg p.o.
Protocol: To at least 6 male rats, having a body-weight of from 170 to 220 g, dosages of the test compounds are administered orally in an amount of 0.5 ml of a suspension medium per 100 g animal body-weight. The animals of the blank control group received the corresponding amount by volume of the suspension medium only. One hour after application of the test compounds, a dosage of 20 mg per kg of indomethacine contained in an amount of 0.5 ml of a suspension per 100 g animal body-weight, are orally applied to each animal for producing ulcers. 24 hours after the application of indomethacine, the animals are sacrificed.
The mean value and the standard deviation of the numbers of ulcers is calculated and subsequently the inhibiting activity of the test compounds and a standard compound are calculated as percent inhibition compared with the blank control group.

secretion in the stomach = assay: Effect on the secretion in the stomach of narcotized rats (determination of the pH-value); assay type: in vivo, rat; settings: for inhibition at 300 mg/kg: dosage 300 mg/kg p.o., narcotized rat, acetylcholine 10 mg/kg i.p. control = 100
Protocol: 3. Effect on the secretion in the stomach of narcotized rats (determinationof the pH-value)
The test is performed on narcotized (urethane narcosis) male rats, having a body weight of from 200-230 g. For this purpose N/4000-sodium hydroxide solution is perfused into the stomachs of rats at a rate of 1 ml per minute by means of a cardia- and pylorus-catheter. The pH value of the perfusate, which leaves the stomach by way of the pylorus catheter, is determined by means of a one-rod measuring system, and is continuously registered.
In order to perform a comparative control test, after a pre-run period of 20 minutes, 10 mg per kg of acetylcholine are applied intraperitoneously. The resulting comparative control value is defined as being 100.
For evaluation, the surface-integral is calculated numerically with the aid of the rule of Simpson. The degree of inhibition of the secretion is calculated from the difference between the surfaces before and after the application of the test compound.

ulcer = settings: background; cited from earlier work
[2] = po, rat, indomethacine 20 mg/kg p.o., 24 hours

Row | SMILES | LD50 at 168 h (in vivo) | inhibition at 75 mg/kg ([1]; po, dosage 75 mg/kg p.o., rat, indomethacine 20 mg/kg p.o., 24 hours) | inhibition at 300 mg/kg (secretion in the stomach) | inhibition at 68 mg/kg [1, 2] | effect on the ulcer (in words) ([1]; at the low dosage that inhibits secretion (footnote to Table 1)) | inhibition at 12 mg/kg ([1]; po, dosage 12 mg/kg p.o., rat, indomethacine 20 mg/kg p.o., 24 hours) | inhibition at 0.5 mg/kg (secretion in the stomach; Rattus norvegicus, ip, read-out: Inhibition of secretion in the stomach, % inhibition) | inhibition of the secretion in the stomach (in words) (secretion in the stomach; at a low dosage already (footnote to Table 1)) | side effects in ulcer therapy (in words) (ulcer) | success in ulcer therapy (in words) (ulcer)
1 | CN(CC(O)CNC(=O)c1ccccc1C(F)(F)F)c1ccc(Cl)cc1 (stereo not drawn) [Compound 3, N1-(2-trifluoromethylbenzoyl)-N2-methyl-N2-(4-chlorophenyl)-1,3-diaminopropan-2-ol] | > 1470 mg/kg | 40% | 0% |  |  |  |  |  |  | 
2 | CN(CC(O)CNC(=O)c1ccccc1F)c1ccc(Cl)cc1 (stereo not drawn) [Compound 2, N1-(2-fluorobenzoyl)-N2-methyl-N2-(4-chlorophenyl)-1,3-diaminopropan-2-ol] | > 1470 mg/kg |  | 0% | 49% |  |  |  |  |  | 
3 | CN1[C@@H]2CC[C@H]1C[C@@H](OC(=O)C(CO)c1ccccc1)C2 (stereo partly drawn) [A, atropine sulfate, reference compound] |  |  |  |  | does not have a sufficiently | 26% | 100% | strong inhibition | side effects which occur already at low dosages | have not succeeded in ulcer therapy
4 | CN(CC(O)CNC(=O)c1ccco1)c1ccc(Cl)cc1 (stereo not drawn) [Compound 4, N1-(2-furoyl)-N2-methyl-N2-(4-chlorophenyl)-1,3-diaminopropan-2-ol] | > 1470 mg/kg |  | 0% | 44% |  |  |  |  |  | 
5 | COc1ccc(C(=O)NCC(O)CN(C)c2ccc(Cl)cc2)cc1OC (stereo not drawn) [Compound 1, N1-(3,4-dimethoxybenzoyl)-N2-methyl-N2-(4-chlorophenyl)-1,3-diaminopropan-2-ol] | > 6810 mg/kg |  | 0% | 44% |  |  |  |  |  | 
